In the supplement of paper PMC10307832:

Assays:
Experiment in all cases: relative viability (nuclei count vs DMSO), 5 days (fraction); higher = more cells survive
[1] = compound: COc1cc2nc(N3CCCN(C)CC3)nc(NC3CCN(Cc4ccccc4)CC3)c2cc1OC + COc1cccc2cc(-c3nc([C@H]4CC[C@H](C(=O)O)CC4)n4ncnc(N)c34)[nH]c12 [OSI-027] (partner 0.5 µM)
Summary of the method: (§1)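 Medians of duplicate plates are given as relative viability. That measure is the nuclei count in treated wells divided by the count in vehicle wells. Counts were taken on 4× images of lung cancer cell lines in 1536-well plates, 5 days after pin-tool dosing the day after seeding with one drug alone or a fixed anchor-drug dose plus five library-drug doses (not always all listed) in √10 steps.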

[2] = compound: COc1cc2nc(N3CCCN(C)CC3)nc(NC3CCN(Cc4ccccc4)CC3)c2cc1OC + N=C(N)NC(=N)NCCc1ccccc1 [Phenformin] (partner 250 µM)
Summary of the method: as §1

[3] = compound: COc1cc2nc(N3CCCN(C)CC3)nc(NC3CCN(Cc4ccccc4)CC3)c2cc1OC + C[C@]1(O)C[C@@H](c2nc(-c3ccc4ccc(-c5ccccc5)nc4c3)c3c(N)nccn32)C1 [Linsitinib] (partner 1 µM)
Summary of the method: as §1

[4] = compound: Cc1cc([C@@H](C)Nc2ccccc2C(=O)O)c2nc(N3CCOCC3)cc(=O)n2c1 [AZD6482] + CCNC(=O)c1noc(-c2cc(C(C)C)c(O)cc2O)c1-c1ccc(CN2CCOCC2)cc1 [Luminespib] (partner 0.01 µM)
Summary of the method: as §1

| Cell Line | relative viability ([1]; first compound 0.2 µM) | relative viability ([1]; first compound 0.6325 µM) | relative viability ([1]; first compound 2 µM) | relative viability ([1]; first compound 6.325 µM) | relative viability ([2]; first compound 0.2 µM) | relative viability ([2]; first compound 0.6325 µM) | relative viability ([2]; first compound 2 µM) | relative viability ([2]; first compound 6.325 µM) | relative viability ([3]; first compound 0.2 µM) | relative viability ([3]; first compound 0.6325 µM) | relative viability ([3]; first compound 2 µM) | relative viability ([3]; first compound 6.325 µM) | relative viability ([4]; first compound 0.08 µM) | relative viability ([4]; first compound 0.253 µM) | relative viability ([4]; first compound 0.8 µM) | relative viability ([4]; first compound 2.53 µM) | relative viability ([4]; first compound 8 µM) |
| --- | --- | --- | --- | --- | --- | --- | --- | --- | --- | --- | --- | --- | --- | --- | --- | --- | --- |
| NCI-H1355 | 0.393 | 0.456 | 0.467 | 0.401 | 0.485 | 0.46 | 0.508 | 0.463 | 0.881 | 0.784 | 0.831 | 0.808 | 0.53 | 0.556 | 0.702 | 0.422 | 0.52 |
| HCC-78 | 0.381 | 0.33 | 0.329 | 0.377 | 0.73 | 0.793 | 0.675 | 0.777 | 0.427 | 0.416 | 0.482 | 0.348 | – | – | – | – | – |
| NCI-H1563 | 0.748 | 0.713 | 0.773 | 0.729 | 0.638 | 0.75 | 0.68 | 0.666 | 1.29 | 1.19 | 1.19 | 1.16 | 0.504 | 0.541 | 0.584 | 0.478 | 0.522 |
| HCC-15 | 0.696 | 0.712 | 0.619 | 0.377 | 0.443 | 0.485 | 0.572 | 0.463 | 0.895 | 0.903 | 0.95 | 0.734 | 0.425 | 0.229 | 0.275 | 0.239 | 0.43 |
| EKVX | 0.755 | 0.662 | 0.736 | 0.666 | 0.233 | 0.235 | 0.233 | 0.24 | 0.986 | 0.922 | 1.07 | 0.891 | 0.778 | 0.748 | 0.74 | 0.625 | 0.557 |
| NCI-H2087 | 0.469 | 0.428 | 0.547 | 0.452 | 0.413 | 0.439 | 0.48 | 0.393 | 0.908 | 0.706 | 1.05 | 0.899 | 0.183 | 0.161 | 0.213 | – | 0.16 |
| LK-2 | 0.197 | 0.221 | 0.196 | 0.214 | 0.504 | 0.569 | 0.576 | 0.311 | 0.472 | 0.539 | 0.624 | 0.644 | 0.231 | 0.187 | 0.229 | 0.177 | 0.167 |
| NCI-H1437 | 0.901 | 0.876 | 0.85 | 0.918 | 0.261 | 0.329 | 0.326 | 0.297 | 1.06 | 0.956 | 1.11 | 0.891 | 1.16 | 1.2 | 1.14 | 0.969 | 1.15 |
| COR-L23 | 0.882 | 0.735 | 0.802 | 0.765 | 0.456 | 0.446 | 0.494 | 0.398 | 0.966 | 1.02 | 1.05 | 1 | 0.635 | 0.688 | 0.768 | 0.519 | 0.636 |
